ChEMBL document CHEMBL1130184, “Effect of a chemical modification on the hydrated adenosine intermediate produced by adenosine deaminase and a model reaction for a potential mechanism of action of 5-aminoimidazole ribonucleotide carboxylase” (J Med Chem, 1997)

Key:
Adenosine deaminase [1] = molecular target: T1, Adenosine deaminase (Bos taurus, UniProt P56658); experiment: Inhibitory activity against adenosine deaminase
T1 sequence (P56658 whole entry): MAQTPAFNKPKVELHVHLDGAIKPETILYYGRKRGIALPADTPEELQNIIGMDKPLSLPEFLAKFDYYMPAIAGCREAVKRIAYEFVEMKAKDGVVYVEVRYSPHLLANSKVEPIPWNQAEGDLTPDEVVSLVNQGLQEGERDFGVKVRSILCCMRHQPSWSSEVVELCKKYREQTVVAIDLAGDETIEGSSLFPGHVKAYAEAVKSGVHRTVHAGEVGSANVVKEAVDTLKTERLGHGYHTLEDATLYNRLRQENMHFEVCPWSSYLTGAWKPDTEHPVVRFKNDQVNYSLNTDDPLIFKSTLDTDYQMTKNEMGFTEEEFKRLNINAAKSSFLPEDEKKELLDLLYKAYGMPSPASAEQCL

Adenosine deaminase [2] = molecular target: T1, Adenosine deaminase; experiment: Apparent binding constant against adenosine deaminase
[3] = molecular target: T2, Adenosine deaminase (Bos taurus) (UniProt P56658); experiment: Inhibitory activity of compound at 25 uM against adenosine deaminase
T2 sequence (whole entry): T1 sequence (P56658 whole entry)

Compound: Nc1ccnc2c1ncn2[C@@H]1O[C@H](CO)[C@@H](O)[C@H]1O
- Ki (Adenosine deaminase [1]): 0.18 µM

Compound: O=CNc1cn([C@@H]2O[C@H](CO)[C@@H](O)[C@H]2O)cn1
- Ki (Adenosine deaminase [2]): 40 µM

Compound: Nc1ncnc2c1ncn2[C@@H]1O[C@H](CO)[C@@H](O)[C@H]1O
- inhibition [3]: 15%
